Test results: PubChem BioAssay (NCI)
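1) Cells in 96-well plates. 2) Compound, 48 h, 5 concentrations. 3) Linear interpolation between surrounding doses. 4) Unreached endpoint = highest concentration. GI50 is the concentration that inhibits growth by half. At the TGI there is no net growth.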

What was measured:
Assay in all cases: NCI tumour cell line growth inhibition, 48 h
[1] = tested on: M19-MEL melanoma
[2] = tested on: SNB-78 CNS
[3] = tested on: RXF-631 renal
[4] = tested on: XF 498 CNS
[5] = tested on: DMS 114 small cell lung
[6] = tested on: DLD-1 colon
[7] = tested on: HOP-18 NSCLC
[8] = tested on: DMS 273 small cell lung
[9] = tested on: MDA-N

Row | Compound | TGI [1] [µM] | TGI [2] [µM] | TGI [3] [µM] | TGI [4] [µM] | TGI [5] [µM] | TGI [6] [µM] | TGI [7] [µM] | TGI [8] [µM] | TGI [9] [µM] | GI50 [2] [µM] | GI50 [4] [µM] | GI50 [8] [µM] | GI50 [6] [µM] | GI50 [7] [µM] | GI50 [9] [µM]
1 | CC1=C(C(=O)CC(=O)C(=O)Nc2cc(C)ccc2C)Sc2ccccc2N1 | > 100 | > 100 | > 100 | > 100 | > 100 | > 100 | > 100 | – | – | – | – | – | – | – | –
2 | C=C1C(=O)OC2C/C(C)=C/CC/C(C)=C/CCC3(COC(C)=O)OC3CC12 (centres undefined) | 26.4 | 30.3 | – | 19.5 | 14.6 | 14.4 | 23.3 | 20.9 | – | – | – | – | – | – | –
3 | CCC(=O)c1c(NOC2OCC(OC(C)=O)C(OC(C)=O)C2OC(C)=O)nc(OC)n(C)c1=O (centres undefined) | > 100 | > 100 | – | > 100 | > 100 | > 100 | – | > 100 | – | – | – | – | – | – | –
4 | Cc1ccccc1NC(=O)c1cc(-c2ccc([N+](=O)[O-])cc2)nc(=S)[nH]1 | – | > 100 | > 100 | – | > 100 | > 100 | > 100 | > 100 | – | – | – | – | – | – | –
5 | CCOC(=O)C1=C(Nc2ccc(Cl)cc2Cl)OCC1=O | > 100 | > 100 | > 100 | > 100 | – | > 100 | – | > 100 | – | – | – | – | – | – | –
6 | NCCSSCCN | > 100 | > 100 | > 100 | > 100 | > 100 | > 100 | > 100 | > 100 | > 100 | – | – | – | – | – | –
7 | COc1cc(C2SCCCCCCCCCCSC(c3ccc(O)c(OC)c3)SCCCCCCCCCCS2)ccc1O (centres undefined) | – | – | – | – | – | – | – | – | > 100 | – | – | – | – | – | –
8 | COC/C=C\COC | > 100 | > 100 | > 100 | > 100 | > 100 | > 100 | > 100 | > 100 | – | – | – | – | – | – | –
9 | CC(=O)N/N=C1\CC(C)(C)C2CCC1C2 (centres undefined) | > 100 | > 100 | – | > 100 | > 100 | – | – | > 100 | – | – | – | – | – | – | –
10 | CCCNC(=O)C1C(=O)C(=O)N(CCC)C1=O (centres undefined) | > 100 | > 100 | – | > 100 | > 100 | > 100 | > 100 | > 100 | – | – | – | – | – | – | –
11 | N/N=C1\C(=O)N(C2CCCCCC2)C(=O)C1C(=O)NC1CCCCCC1 (centres undefined) | > 100 | 77.3 | – | – | – | > 100 | 91.4 | – | – | – | – | – | – | – | –
12 | CC1=C[C@H]2c3c([nH]c4ccccc34)C(c3c[nH]c4ccccc34)[C@H]2CC1 (some centres undefined) | 22.9 | 13.2 | 14.1 | – | 20.5 | 19.1 | 24.1 | 15.8 | – | – | – | – | – | – | –
13 | CCC[CH2][Sn]([Cl])([Cl])[CH2]CCC | 2.21 | 1.43 | – | 1.44 | – | 1.99 | 2.56 | 3.73 | – | 0.333 | 0.534 | 1.29 | 0.649 | 1.29 | –
14 | COc1ccc(NC(=O)CC2SC(=Nc3ccccc3C)NC2=O)c([N+](=O)[O-])c1 (centres undefined) | > 100 | > 100 | – | > 100 | – | > 100 | – | > 100 | – | – | – | – | – | – | –
15 | Cc1[nH]nc(C(F)(F)F)c1N=NN(C)C | – | – | – | – | – | – | – | – | > 100 | – | – | – | – | – | –
16 | CCc1ccc(NC(=O)NC(=O)c2ccccc2[N+](=O)[O-])cc1Oc1ncc(Cl)cn1 | > 100 | > 100 | – | – | > 100 | > 100 | > 100 | – | – | – | – | – | – | – | –
17 | C=C(CC(NC(=O)c1ccc(C(CC)Cc2cnc3nc(N)nc(N)c3n2)cc1)C(=O)O)C(=O)O (centres undefined) | – | > 100 | – | – | – | > 100 | – | > 100 | – | – | – | – | – | – | –

Row | Compound | TGI [1] [µM] | TGI [2] [µM] | TGI [3] [µM] | TGI [4] [µM] | TGI [5] [µM] | TGI [6] [µM] | TGI [7] [µM] | TGI [8] [µM] | TGI [9] [µM] | GI50 [2] [µM] | GI50 [4] [µM] | GI50 [8] [µM] | GI50 [6] [µM] | GI50 [7] [µM] | GI50 [9] [µM]
18 | CC1=Nc2c(ccc3c2C(=O)c2ccccc2C3=O)NC(c2cccc3c2CCC3)C1 (centres undefined) | > 72.6 | > 100 | > 100 | > 100 | – | > 100 | > 100 | > 100 | – | – | – | – | – | – | –
19 | COC12CCC(=O)C=C1c1ccccc1N2C(C)=O (centres undefined) | > 100 | > 100 | – | > 100 | > 100 | > 100 | > 100 | > 100 | – | – | – | – | – | – | –
20 | CCNC(=O)COc1ccc(Br)cc1Br | > 100 | > 100 | > 100 | – | > 100 | > 100 | > 100 | > 100 | – | – | – | – | – | – | –
21 | N#Cc1ccccc1C(Cl)(Cl)c1cnccn1 | > 100 | > 100 | – | 33.8 | 43 | > 100 | > 100 | > 100 | – | – | – | – | – | – | –
22 | CC(Oc1ccc2c(-c3ccccc3)cc(=O)oc2c1)C(=O)O (centres undefined) | > 100 | > 100 | – | > 100 | > 100 | > 100 | > 100 | – | – | – | – | – | – | – | –
23 | O=C(Cc1nc2ccccc2c(=O)n1-c1ccccc1Cl)c1ccncc1 | > 100 | > 100 | > 100 | – | > 100 | > 100 | > 100 | > 100 | – | – | – | – | – | – | –
24 | O=C(CCC(=O)Nc1ccc(Cl)c(Cl)c1)CC(=O)c1ccc(Br)cc1 | > 100 | > 100 | > 100 | > 100 | > 100 | > 100 | > 100 | – | – | – | – | – | – | – | –
25 | C#Cc1cccc(N2C(=O)c3c(c(-c4ccccc4)c(-c4ccc(Cc5ccc(-c6c(-c7ccccc7)c7c(c(-c8ccccc8)c6-c6ccccc6)C(=O)N(c6cccc(C#C)c6)C7=O)cc5)cc4)c(-c4ccccc4)c3-c3ccccc3)C2=O)c1 | 52 | > 100 | – | 72.7 | > 100 | > 100 | – | > 100 | – | – | – | – | – | – | –
26 | CC[n+]1oc(C(=O)c2ccc(Cl)cc2)c(-c2ccccc2)c1-c1ccccc1.[Cl][Fe]([Cl])([Cl])[Cl] | – | – | – | – | – | – | – | – | > 100 | – | – | – | – | – | 28.7
27 | COc1ccc(NC(=O)/C(=C/c2ccccc2)C(C)=O)cc1 | 29.9 | 44.8 | 31.2 | 30.6 | 30.7 | 28.7 | 28.2 | 30.8 | – | – | – | – | – | – | –
28 | CC1/C=C/[C@@]2(C)CCC(C(C)(C)O)C2C(O)C[C@](C)(O)/C=C/C1 (some centres undefined) | – | > 100 | – | > 100 | > 100 | > 100 | > 100 | > 100 | – | – | – | – | – | – | –
29 | O=C1c2ccccc2-[n+]2ccc3c([nH]c4ccccc43)c21 | – | – | – | – | – | – | – | – | 0.318 | – | – | – | – | – | –
30 | Cc1ccc(NC(=O)CCc2nc(N)nc(N)c2-c2ccccc2)cc1C | > 100 | > 100 | > 100 | > 100 | > 100 | > 100 | > 100 | > 100 | – | – | – | – | – | – | –
31 | CCC1CC2C(=O)N(c3ccccc3)C(=O)C2c2[nH]c3ccccc3c21 (centres undefined) | 79.9 | 75.1 | 29.4 | 42 | 35.7 | > 100 | 45.8 | – | – | – | – | – | – | – | –
32 | O=C1CC2C(=O)c3ccccc3CC2c2ccccc21 (centres undefined) | – | – | – | – | – | – | – | – | > 100 | – | – | – | – | – | –
33 | Cc1nn[n-]n1.N.N.N.N.N.[Cl-].[Co+3] | – | > 100 | – | – | – | > 100 | > 100 | > 100 | – | > 100 | – | > 100 | > 100 | > 100 | –
34 | CCOC(=O)C(=O)Nc1ccccc1C | > 100 | > 100 | > 100 | 87.9 | > 100 | > 100 | – | – | – | – | – | – | – | – | –
